Patent US9174994B2, “Enhanced treatment regimens using mTor inhibitors” (INTELLIKINE LLC, priority 2011, dated 2015)

What follows are compounds tested on PC3 (assay: PC3 proliferation). Details: Homo sapiens, PC-3; Table 1.
Format: cell-based
For CC(=O)Nc1nc2cc(-c3nn(C(C)C)c4ncnc(N)c34)ccc2o1 [Compound 2], the IC50 was under 1 µM. In the case of CC(C)n1nc(-c2ccc3nc(N)oc3c2)c2c(N)ncnc21 [Compound 4], the IC50 is reported as under 10 µM. With Nc1nc2cc(-c3nn(C4CCOCC4)c4ncnc(N)c34)ccc2o1 [Compound 5] the IC50 was under 0.1 µM. Nc1nc2cc(-c3nn(C4CCC(N5CCOCC5)CC4)c4ncnc(N)c34)ccc2o1 (stereo not shown) [Compound 6] gave an IC50 of under 1 µM. In the case of CC(=O)N1CCC(n2nc(-c3ccc4oc(N)nc4c3)c3c(N)ncnc32)CC1 [Compound 7], the IC50 is reported as under 10 µM. For CC(C)n1cc(-c2ccc3oc(N)nc3c2)c2c(N)ncnc21 [Compound 8], the IC50 was under 0.1 µM. For Nc1nc2cc(-c3cn(C4CCOCC4)c4ncnc(N)c34)ccc2o1 [Compound 9], the IC50 was under 0.1 µM. Compound CC(C)n1nc(-c2ccc3onc(N)c3c2)c2c(N)ncnc21 [Compound 10] has an IC50 of over 10 µM. Compound CC(=O)Nc1noc2cc(-c3nn(C(C)C)c4ncnc(N)c34)ccc12 [Compound 11] has an IC50 of over 10 µM. For CC(C)n1nc(-c2ccc3c(N)noc3c2)c2c(N)ncnc21 [Compound 12], the IC50 was over 10 µM.
